According to PubChem BioAssay (NCI):
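Exposure lasted 48 hours, with cells grown in 96-well plates and compounds tested at five concentrations. At the TGI there is no net growth.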

Columns and labels:
Test in all cases: growth of human tumour cells (NCI), 48 h
786-0 renal = test system: 786-0 renal
A498 renal = test system: A498 renal
A549 NSCLC = test system: A549 NSCLC
ACHN renal = test system: ACHN renal
BT-549 breast = test system: BT-549 breast
CAKI-1 renal = test system: CAKI-1 renal
DU-145 prostate = test system: DU-145 prostate
EKVX NSCLC = test system: EKVX NSCLC
HCT-116 colon = test system: HCT-116 colon
HCT-15 colon = test system: HCT-15 colon
HL-60(TB) leukemia = test system: HL-60(TB) leukemia
HOP-62 NSCLC = test system: HOP-62 NSCLC
HOP-92 NSCLC = test system: HOP-92 NSCLC
HS 578T breast = test system: HS 578T breast
HT29 colon = test system: HT29 colon
IGROV1 ovarian = test system: IGROV1 ovarian
K-562 leukemia = test system: K-562 leukemia
KM12 colon = test system: KM12 colon
M14 melanoma = test system: M14 melanoma
MALME-3M melanoma = test system: MALME-3M melanoma
MCF7 breast = test system: MCF7 breast
MDA-MB-231 breast = test system: MDA-MB-231 breast
MDA-MB-435 = test system: MDA-MB-435
MOLT-4 leukemia = test system: MOLT-4 leukemia
NCI-H226 lung = test system: NCI-H226 lung
NCI-H23 lung = test system: NCI-H23 lung
NCI-H460 lung = test system: NCI-H460 lung
NCI-H522 lung = test system: NCI-H522 lung
NCI/ADR-RES ovarian = test system: NCI/ADR-RES ovarian
OVCAR-3 ovarian = test system: OVCAR-3 ovarian
OVCAR-4 ovarian = test system: OVCAR-4 ovarian
OVCAR-5 ovarian = test system: OVCAR-5 ovarian
OVCAR-8 ovarian = test system: OVCAR-8 ovarian
PC-3 prostate = test system: PC-3 prostate
RPMI-8226 leukemia = test system: RPMI-8226 leukemia
RXF 393 renal = test system: RXF 393 renal
SF-268 CNS = test system: SF-268 CNS
SF-295 CNS = test system: SF-295 CNS
SF-539 CNS = test system: SF-539 CNS
SK-MEL-2 melanoma = test system: SK-MEL-2 melanoma
SK-MEL-28 melanoma = test system: SK-MEL-28 melanoma
SK-MEL-5 melanoma = test system: SK-MEL-5 melanoma
SK-OV-3 ovarian = test system: SK-OV-3 ovarian
SN12C renal = test system: SN12C renal
SNB-19 CNS = test system: SNB-19 CNS
SNB-75 CNS = test system: SNB-75 CNS
SR leukemia = test system: SR leukemia
SW-620 colon = test system: SW-620 colon
T-47D breast = test system: T-47D breast
TK-10 renal = test system: TK-10 renal
U251 CNS = test system: U251 CNS
UACC-257 melanoma = test system: UACC-257 melanoma
UACC-62 melanoma = test system: UACC-62 melanoma
UO-31 renal = test system: UO-31 renal
CCRF-CEM leukemia = test system: CCRF-CEM leukemia
COLO 205 colon = test system: COLO 205 colon
HCC-2998 colon = test system: HCC-2998 colon

In the case of `OC1CCC(C2C3CCCCC3C3CCCCC3C2C2CCC(O)CC2)CC1` (stereo not given), the TGI (786-0 renal) is reported as greater than 100 µM, the TGI (A498 renal) is reported as 32.2 µM and the TGI (A549 NSCLC) is reported as greater than 100 µM. It also gave a TGI (ACHN renal) of 7.48 µM, a TGI (BT-549 breast) of 8.87 µM and a TGI (CAKI-1 renal) of 13 µM. The TGI (DU-145 prostate) was greater than 100 µM, the TGI (EKVX NSCLC) was greater than 100 µM and the TGI (HCT-116 colon) was greater than 100 µM. For the same compound, the TGI (HCT-15 colon) was 6.14 µM, the TGI (HL-60(TB) leukemia) was 62.2 µM and the TGI (HOP-62 NSCLC) was 47.4 µM. The TGI (HOP-92 NSCLC) was 98.9 µM, the TGI (HS 578T breast) was greater than 100 µM and the TGI (HT29 colon) was 3.96 µM. For the same compound, the TGI (IGROV1 ovarian) was 12.8 µM, the TGI (K-562 leukemia) was greater than 100 µM and the TGI (KM12 colon) was 15.5 µM. The TGI (M14 melanoma) was greater than 100 µM, the TGI (MALME-3M melanoma) was 41.7 µM and the TGI (MCF7 breast) was 34.3 µM. For the same compound, the TGI (MDA-MB-231 breast) was 9.66 µM, the TGI (MDA-MB-435) was 24.6 µM and the TGI (MOLT-4 leukemia) was greater than 100 µM. The TGI (NCI-H226 lung) was greater than 100 µM, the TGI (NCI-H23 lung) was greater than 100 µM and the TGI (NCI-H460 lung) was 10.2 µM. The TGI (NCI-H522 lung) was 6.37 µM, the TGI (NCI/ADR-RES ovarian) was greater than 100 µM and the TGI (OVCAR-3 ovarian) was greater than 100 µM. For the same compound, the TGI (OVCAR-4 ovarian) was 16 µM, the TGI (OVCAR-5 ovarian) was greater than 100 µM and the TGI (OVCAR-8 ovarian) was 20.4 µM. For the same compound, the TGI (PC-3 prostate) was greater than 100 µM, the TGI (RPMI-8226 leukemia) was 59.1 µM and the TGI (RXF 393 renal) was 7.06 µM. It also gave a TGI (SF-268 CNS) of 14.5 µM, a TGI (SF-295 CNS) of 27.3 µM and a TGI (SF-539 CNS) of 75.5 µM. The TGI (SK-MEL-2 melanoma) was 25.3 µM, the TGI (SK-MEL-28 melanoma) was 9.59 µM and the TGI (SK-MEL-5 melanoma) was 23.5 µM. For the same compound, the TGI (SK-OV-3 ovarian) was 31 µM, the TGI (SN12C renal) was greater than 100 µM and the TGI (SNB-19 CNS) was 32.2 µM. For the same compound, the TGI (SNB-75 CNS) was 21.6 µM, the TGI (SR leukemia) was greater than 100 µM and the TGI (SW-620 colon) was 19.6 µM. The TGI (T-47D breast) was 11 µM, the TGI (TK-10 renal) was 34.9 µM and the TGI (U251 CNS) was 14 µM. For the same compound, the TGI (UACC-257 melanoma) was 33.4 µM, the TGI (UACC-62 melanoma) was 31.2 µM and the TGI (UO-31 renal) was 36.5 µM.

`CCN(CC)CCNc1ccc(N=Nc2ccc(S(N)(=O)=O)cc2)c2ccccc12` was tested, and the TGI (786-0 renal) was greater than 100 µM, the TGI (A498 renal) was 29.7 µM and the TGI (A549 NSCLC) was 40.5 µM. For the same compound, the TGI (ACHN renal) was 38.8 µM, the TGI (BT-549 breast) was 34 µM and the TGI (CAKI-1 renal) was 31.2 µM. For the same compound, the TGI (CCRF-CEM leukemia) was 38.3 µM, the TGI (COLO 205 colon) was greater than 100 µM and the TGI (DU-145 prostate) was 28.2 µM. The TGI (EKVX NSCLC) was 41.2 µM, the TGI (HCC-2998 colon) was 29.1 µM and the TGI (HCT-116 colon) was greater than 100 µM. For the same compound, the TGI (HCT-15 colon) was greater than 100 µM, the TGI (HL-60(TB) leukemia) was 36.9 µM and the TGI (HOP-62 NSCLC) was greater than 100 µM. It also gave a TGI (HOP-92 NSCLC) of 35.9 µM, a TGI (HS 578T breast) of 55.9 µM and a TGI (HT29 colon) of 34.9 µM. The TGI (IGROV1 ovarian) was 28.8 µM, the TGI (K-562 leukemia) was greater than 100 µM and the TGI (KM12 colon) was 39 µM. It also gave a TGI (M14 melanoma) of 23.3 µM, a TGI (MALME-3M melanoma) of 36 µM and a TGI (MCF7 breast) of 47 µM. The TGI (MDA-MB-231 breast) was 27.8 µM, the TGI (MDA-MB-435) was 23.6 µM and the TGI (MOLT-4 leukemia) was 25.6 µM. For the same compound, the TGI (NCI-H226 lung) was 72.7 µM, the TGI (NCI-H23 lung) was 50.7 µM and the TGI (NCI-H460 lung) was greater than 100 µM. For the same compound, the TGI (NCI-H522 lung) was 32 µM, the TGI (NCI/ADR-RES ovarian) was greater than 100 µM and the TGI (OVCAR-3 ovarian) was 5.55 µM. The TGI (OVCAR-4 ovarian) was 30.9 µM, the TGI (OVCAR-5 ovarian) was 88.1 µM and the TGI (OVCAR-8 ovarian) was 21.3 µM. For the same compound, the TGI (PC-3 prostate) was 29.7 µM, the TGI (RPMI-8226 leukemia) was 18.7 µM and the TGI (RXF 393 renal) was 12.7 µM. It also gave a TGI (SF-268 CNS) of 37.8 µM, a TGI (SF-295 CNS) of 15.1 µM and a TGI (SF-539 CNS) of 12.8 µM. For the same compound, the TGI (SK-MEL-2 melanoma) was 28.2 µM, the TGI (SK-MEL-28 melanoma) was 28.1 µM and the TGI (SK-MEL-5 melanoma) was 20.3 µM. It also gave a TGI (SN12C renal) of 81 µM, a TGI (SNB-19 CNS) of 27.7 µM and a TGI (SNB-75 CNS) of 27 µM. The TGI (SR leukemia) was 4.94 µM, the TGI (SW-620 colon) was 14.6 µM and the TGI (T-47D breast) was 8.27 µM. For the same compound, the TGI (TK-10 renal) was 40.3 µM, the TGI (U251 CNS) was greater than 100 µM and the TGI (UACC-257 melanoma) was 31.4 µM. The TGI (UACC-62 melanoma) was 25.7 µM and the TGI (UO-31 renal) was 20.8 µM.
